Data from patent US20070135470A1, “Utilization of vinpocetine to avoid complications in particular those associated to hearing which occur with epilepsy, and treatment thereof” (UNIVERSIDAD NACIONAL AUTONOMA DE MEXICO, priority 2003, published 2007).

Experiments:
[1] = system: epileptic cortical activity induced by 4-AP in guinea pigs; test: EEG recordings of cortical activity in 4-AP-induced epilepsy; assay type: in vivo, guinea pig; conditions: ictal (about 20 min) and post-ictal (30, 60, 80 min) periods; vinpocetine 2 mg/kg 1 h before 4-AP; FIGS. 6, 7
Experimental: (§1) Experiments were performed in pigmented adult male guinea pigs initially weighing 349±38 g. ABRs recordings were used to evaluate the hearing status of each animal and EEG recordings to evaluate changes in cortical excitability. The ABR and EEG recordings were obtained following a method that we have previously reported (Nekrassov and Sitges, 2003). The Institutional Animal Use and Care Committee approved all experimental procedures.
(§2) Three types of recordings were performed in the anaesthetized animals, namely the ABR recordings elicited by a stimulus of high intensity (100 dB), the ABR recordings for determination of the auditory threshold and the EEG recordings.
(§3) Five guinea pigs were entered into the study. One hour after injecting guinea pigs with vehicle (acidified saline used to dissolve vinpocetine) the animals were anaesthetized and a first set of ABR and EEG recordings was taken before the injection (i.p) of the convulsing agent, 4-AP. The animals were injected with 4-AP (2 mg/kg) and about 20 min after injecting 4-AP (ictal period) the EEG recording was taken. Then the other series of ABR and EEG recordings were taken at specific times within the post-ictal period. After two weeks the same series of recordings were repeated but instead vehicle the animals were injected with vinpocetine (2 mg/kg) 1 hour before the injection of 4-AP.
Vinpocetine inhibits all the changes induced by 4-AP on the EEG. […] This change on the cortical activity elicited by 4-AP for the ictal period is followed by the post-ictal period characterized by isolated spikes of higher amplitude that appear on the EEG about one hour after the injection of 4-AP. […] The top traces of FIG. 6 show the characteristic EEG recordings taken before the injection of 4-AP in the animals pre-injected with vehicle (a) and in the animals pre-injected with vinpocetine (b). The changes induced by 4-AP on for the ictal period are shown in the second trace on FIG. 6a. In the vinpocetine treated animals 4-AP was unable to induce the ictal activity (second trace on FIG. 6b).

[2] = system: epileptic cortical activity induced by PTZ in guinea pigs; test: EEG recordings of cortical activity in PTZ-induced epilepsy; assay type: in vivo, guinea pig; conditions: ictal (about 2 min) and post-ictal (10, 20, 30, 50 min) periods; vinpocetine 2 mg/kg 4 h before PTZ; FIGS. 3, 4
Experimental: as §1, §2
(§4) Eight male guinea pigs were entered into this study. PTZ was dissolved in saline and vinpocetine in a saline acidified (with HCl) adjusted to pH 4 (with NaOH). Four hours after injecting guinea pigs with vehicle (acidified saline used to dissolve vinpocetine) the animals were anaesthetized and a first set of ABR and EEG recordings was taken before the injection (i.p) of the convulsing agent, PTZ. The animals were injected with PTZ (100 mg/kg) and about 2 min after injecting PTZ (ictal period) the EEG recording was taken. Then the other series of ABR and EEG recordings were taken at specific times within the post-ictal period. After two weeks the same series of recordings was taken but instead vehicle the animals were injected with vinpocetine (2 mg/kg) 4 hours before the injection of PTZ.
Vinpocetine inhibits all the changes induced by PTZ on the EEG. […] This dramatic change on the cortical activity induced by PTZ in the anaesthetized animals during convulsions is followed by a typical pattern of cortical activity characterized by rhythmic spike bursts of high amplitude. The duration time of this typical pattern of cortical activity, that is not accompanied by convulsions is referred as the post-ictal period.

humans = conditions: doses as high as 60 mg/day; Hindmarch et al. 1991; cited from earlier work
[3] = system: hearing loss induced by PTZ in guinea pigs; test: ABR (auditory) threshold in PTZ-induced epilepsy; assay type: in vivo, guinea pig
Experimental: as §1, §2
(§5) Determination of ABR thresholds. ABR recordings elicited by stimuli of progressively lower intensity (in dB) were used for determining the hearing threshold. Threshold is defined as the lowest stimulus intensity (in dB) at which the P3 wave of the ABR could still be recorded in three consecutive trials.
(§6) Student's t-test was used for the evaluation of the differences between results obtained before and at the specified times after the injection of the convulsing agents. The criterion for statistical significance for all measures was P≦0.05. All data are expressed as means±standard error of the mean. In figures and tables the symbol * is used for indicating statistic significant differences.
as §4

[4] = system: hearing loss induced by 4-AP in guinea pigs; test: ABR (auditory) threshold in 4-AP-induced epilepsy; assay type: in vivo, guinea pig
Experimental: as §1, §2, §5, §6, §3

presynaptic Na+ channels = conditions: brain isolated nerve endings; Sitges and Nekrassov 1999; Trejo et al. 2001; cited from earlier work
[5] = system: epilepsy induced by 4-AP in guinea pigs; test: ABR wave parameters (amplitude, latency) in 4-AP-induced epilepsy; assay type: in vivo, guinea pig; conditions: 100 dB
Experimental: as §1, §2
Determination of ABR wave parameters. The latency and amplitude of each wave component of the ABR elicited by a stimulus of 100 dB with pure tone frequencies of 4 and 8 kHz was measured in all the ABR recordings obtained under the different experimental conditions at the specified times. The latency of each ABR wave (in ms) refers to the time interval between the onset of the auditory stimulus and the positive peak of the wave. The onset of the stimulus is indicated by the vertical arrow at the bottom of the recordings on FIG. 1. The peak amplitude (in μV) of each wave of the ABR is the difference between the positive peak of the wave and the reference baseline (trace between the stimulus and the appearance of the first ABR wave on FIG. 1).
as §6, §3

[6] = system: guinea pig treated with amikacin; conditions: high dose of amikacin; Nekrassov and Sitges 2000; cited from earlier work
[7] = 4 kHz, 30 min after 4-AP 2 mg/kg i.p., vinpocetine 2 mg/kg or vehicle 1 h before 4-AP
[8] = 4 kHz, 60 min after 4-AP 2 mg/kg i.p., vinpocetine 2 mg/kg or vehicle 1 h before 4-AP
[9] = 8 kHz, 30 min after 4-AP 2 mg/kg i.p., vinpocetine 2 mg/kg or vehicle 1 h before 4-AP
[10] = 8 kHz, 60 min after 4-AP 2 mg/kg i.p., vinpocetine 2 mg/kg or vehicle 1 h before 4-AP

CCOC(=O)C1=C[C@]2(CC)CCCN3CCc4c(n1c1ccccc41)[C@@H]32 [Vinpocetine, ethyl apovincamine-22-oate]
effect on changes on the cortical activity (EEG) induced by 4-AP [1]: completely prevents
effect on changes on the cortical activity (EEG) induced by PTZ [2]: completely inhibits
tolerability in humans (humans): well tolerated and without contraindications
auditory threshold ([3]; 4 kHz, 30 min after PTZ 100 mg/kg i.p., vinpocetine 2 mg/kg or vehicle 4 h before PTZ): 18 ± 1.2 dB
auditory threshold ([3]; 4 kHz, 50 min after PTZ 100 mg/kg i.p., vinpocetine 2 mg/kg or vehicle 4 h before PTZ): 18 ± 1.2 dB
auditory threshold ([3]; 4 kHz, before PTZ injection, 4 h after vinpocetine 2 mg/kg, mean±SEM, 8 animals): 20 ± 1.6 dB
auditory threshold ([3]; 8 kHz, 30 min after PTZ 100 mg/kg i.p., vinpocetine 2 mg/kg or vehicle 4 h before PTZ): 6.0 ± 1.0 dB
auditory threshold ([3]; 8 kHz, 50 min after PTZ 100 mg/kg i.p., vinpocetine 2 mg/kg or vehicle 4 h before PTZ): 6.0 ± 1.0 dB
auditory threshold ([3]; 8 kHz, before PTZ injection, 4 h after vinpocetine 2 mg/kg, mean±SEM, 8 animals): 6.0 ± 1.0 dB
auditory threshold [4, 7]: 11.3 ± 1.3 dB
auditory threshold [4, 8]: 11.3 ± 1.3 dB
auditory threshold ([4]; 4 kHz, before 4-AP injection, 1 h after vinpocetine 2 mg/kg): 13.8 ± 1.3 dB
auditory threshold [4, 9]: −1.3 ± 2.4 dB
auditory threshold [4, 10]: 0.0 ± 3.5 dB
auditory threshold ([4]; 8 kHz, before 4-AP injection, 1 h after vinpocetine 2 mg/kg): 2.5 ± 1.4 dB
neurotransmitter release induced by an increase in presynaptic Na+ channels permeability (presynaptic Na+ channels): selectively inhibits
latency of the P4 wave of the ABR [5, 7]: 3.37 ± 0.06 ms
latency of the P4 wave of the ABR [5, 8]: 3.54 ± 0.11 ms
latency of the P4 wave of the ABR ([5]; 4 kHz, 80 min after 4-AP 2 mg/kg i.p., vinpocetine 2 mg/kg or vehicle 1 h before 4-AP): 3.56 ± 0.04 ms
latency of the P4 wave of the ABR ([5]; 4 kHz, 100 min after 4-AP 2 mg/kg i.p., vinpocetine 2 mg/kg or vehicle 1 h before 4-AP): 3.43 ± 0.09 ms
latency of the P4 wave of the ABR ([5]; 4 kHz, before 4-AP injection, 1 h after vinpocetine 2 mg/kg, 5 animals): 3.45 ± 0.06 ms
latency of the P4 wave of the ABR [5, 9]: 3.55 ± 0.07 ms
latency of the P4 wave of the ABR [5, 10]: 3.45 ± 0.08 ms
latency of the P4 wave of the ABR ([5]; 8 kHz, 80 min after 4-AP 2 mg/kg i.p., vinpocetine 2 mg/kg or vehicle 1 h before 4-AP): 3.36 ± 0.05 ms
latency of the P4 wave of the ABR ([5]; 8 kHz, 100 min after 4-AP 2 mg/kg i.p., vinpocetine 2 mg/kg or vehicle 1 h before 4-AP): 3.35 ± 0.07 ms
latency of the P4 wave of the ABR ([5]; 8 kHz, before 4-AP injection, 1 h after vinpocetine 2 mg/kg, 5 animals): 3.48 ± 0.04 ms
progressive increase in the amplitude of the P3 wave of the ABR produced by 4-AP ([5]; 8 kHz, vinpocetine 2 mg/kg 1 h before 4-AP, FIG. 5a,b): eliminated
reduction in P4 amplitude produced by 4-AP ([5]; 8 kHz, vinpocetine 2 mg/kg 1 h before 4-AP, FIG. 5c,d): markedly reduced
protective action over changes in ABR waves, hearing loss and mortality induced by amikacin [6]: long term (more than half a year) protective action
